Read-outs that look alike come from different tables or passages of the source. Residues, ends and D or L forms follow the SMILES beside them. *: point of attachment. Cbz = O=C(OCc1ccccc1)*; CH2F = FC*
How the values were obtained:
mouse cochlear explants = settings: cited from earlier work
HEI-OC1 cells [1] = experiment: Caspase-3/7 Glo assay, cisplatin-induced apoptosis in HEI-OC1 cell line
HEI-OC1 cells [2] = tested on: HEI-OC1 cells
[3] = tested on: hair cells in zebrafish lateral line neuromasts; experiment: Protection against cisplatin-induced hair cell loss in zebrafish lateral lines in vivo; settings: 5-dpf larvae, 5 μM cisplatin
[4] = tested on: outer hair cells (OHCs) in mouse cochlear explants; experiment: Protection against cisplatin-induced hair cell loss in neonatal (P3) mouse cochlear explants; assay type: cell-based; settings: for IC50: read-out: Mouse Explant IC50; for OHCs protected against cisplatin (For x%): level of protection to which the stated explant IC50 refers; for Explant Cisplatin LD50: LD50, unnumbered table; for OHC survival: 24 hr cisplatin co-treatment
[5] = tested on: hair cells in zebrafish lateral line neuromasts; settings: for Zebrafish LD50: 5-dpf larvae
Protocol: The experiments were performed with 5-dpf larval zebrafish of the *AB wild-type strain. Dose-response studies were performed to find the cisplatin concentration at which most of the hair cells in each neuromast were killed in the absence of a protective compound and at the same DMSO concentration (<0.2%).
Experiments were performed in 24-well plates with 5 fish per well in volumes of 1-2 mL. Fish were incubated with 5 μM and stained with 0.005% DASPEI vital dye for 15 minutes. After two washes with egg water, fish were visualized in an epiflourescence microscope. […] Results were plotted as percent survival of hair cells in the cisplatin-treated fish relative to the untreated fish (FIG. 4A-E).

[6] = tested on: mouse medulloblastoma neurosphere lines and human neuroblastoma cell lines; experiment: Interference with cisplatin's killing function in tumor cell lines (Cell Titer Glo); assay type: cell-based; settings: 48 hours, cisplatin 23 μM, compound 3×IC50
Protocol: FIG. 11 addresses interference with cisplatin's killing function in tumors. Four neurosphere lines derived from mouse medulloblastoma (MB) and two human neuroblastoma (NB) cell lines were tested. HEI-OC1 cell line was tested as controls.
Table 1 lists the top 18 compound hits in the screen in terms of high potency and low toxicity. The top ten compounds were further evaluated by a viability assay (Cell Titer Glo, Promega) in medulloblastoma neurosphere cell lines and neuroblastoma cell lines to test whether they inhibit the ability of cisplatin to kill the tumor cells. The majority had no antagonistic effect on cisplatin's antitumor activity (data not shown) and are therefore safe to use systemically together with cisplatin during chemotherapy to protect against cisplatin-induced hearing loss.

[7] = tested on: hair cells in mouse cochlear explants
CDK1, 2, 4, 6 and 9 = settings: range over the kinases; cited from earlier work
[8] = cited from earlier work
[9] = Mus musculus, HEI-OC1, 22 h, read-out: HEI-OC1 IC50
[10] = Mus musculus, 24 h, P3 cochlear explants, 50 μM cisplatin, 24 hrs
[11] = Cell Titer Glo, compound without cisplatin, 40 μM to 40 nM, 22 hrs
[12] = read-out: HEI-OC1 IC50, Caspase-3/7 Glo, 50 μM cisplatin, 22 hrs
[13] = P3 cochlear explants, 50 μM cisplatin, 24 hrs
[14] = Mus musculus, HEI-OC1, read-out: HEI-OC1 IC50

Cc1ccc(C(=O)Cn2c3c(sc2=N)CCCC3)cc1 [Pifithrin-α, reference compound]
damage at protective doses (mouse cochlear explants; 20-100 μM): damage the hair cell stereocillia | concentrations conferring protection from cisplatin-induced cell death (mouse cochlear explants; mouse cochlear explants): 20 to 100 µM | concentration for full reduction of caspase-3/7 activity (HEI-OC1 cells [1]; 50 μM cisplatin): 34 µM | IC50 (HEI-OC1 cells [1]; read-out: IC50, reduction of caspase-3/7 activity (caspase-3 cleavage), reference compound, 50 μM cisplatin): 17000 nM

CC(C)COC(=O)c1ccc2[nH]c(O)c(/C=N/c3ccc(S(N)(=O)=O)cc3)c2c1 [Compound 18]
HEI-OC1 LD50 (HEI-OC1 cells [2]; mouse, 22 h): >40 µM | IC50 (HEI-OC1 cells [1]; [9]): 3400 nM

O=c1cc(CN2CCOCC2)occ1OCCCCCSc1ccnc2cc(C(F)(F)F)ccc12 [Compound 7, EHT1864]
HEI-OC1 LD50 (HEI-OC1 cells [2]; mouse, 22 h): >20 µM | Zebrafish IC50 [3]: No | IC50 (HEI-OC1 cells [1]; [9]): 2000 nM | IC50 [4, 10]: ~10000 nM | OHCs protected against cisplatin (For x%) [4]: (For 58%) | Zebrafish LD50 [5]: <1.0 µM | interference with cisplatin anti-tumor activity [6]: no interference in all tumor cell lines (except one for Compound 7) | Mouse Explant LD50 ([7]; mouse, 24 h): <20 µM

Cyanocobalamin (vitamin B12) [Compound 6]
HEI-OC1 LD50 (HEI-OC1 cells [2]; [11]): >40 µM | IC50 (HEI-OC1 cells [1]; [12]): 4200 nM | IC50 [4, 13]: ~21000 nM | OHCs protected against cisplatin (For x%) [4]: (For 53%) | Mouse Explant LD50 ([7]; P3 cochlear explants): >21 µM

OC[C@H]1OC(c2nc3ccccc3[nH]2)[C@H](O)[C@@H]1O (stereo partly drawn) [Compound 13, D-Ribofuranosyl- benzimidazole]
HEI-OC1 LD50 (HEI-OC1 cells [2]; mouse, 22 h): >40 µM | Zebrafish IC50 [3]: No | IC50 (HEI-OC1 cells [1]; [9]): 4000 nM | IC50 [4, 10]: ~8000 nM | OHCs protected against cisplatin (For x%) [4]: (For 76%) | Zebrafish LD50 [5]: >75 µM

O=C(NC1CCNCC1)c1n[nH]cc1NC(=O)c1c(Cl)cccc1Cl [SJZuo-20, AT7519]
IC50 (CDK1, 2, 4, 6 and 9): […] | IC50 (HEI-OC1 cells [1]; [14]): 380 nM | Explant Cisplatin LD50 [4]: ~25 nM | oral bioavailability, F [8]: < 1% | Explant Cisplatin LD50 ([7]; mouse, 24 h): < 1000 nM

CCOc1cc2ncc(C#N)c(Nc3ccc(F)c(Cl)c3)c2cc1NC(=O)/C=C/CN(C)C [Compound 3, Pelitinib]
HEI-OC1 LD50 (HEI-OC1 cells [2]; mouse, 22 h): >40 µM | Zebrafish IC50 [3]: No | IC50 (HEI-OC1 cells [1]; [9]): 600 nM | IC50 [4, 10]: ~6000 nM | OHCs protected against cisplatin (For x%) [4]: (For 50%) | Zebrafish LD50 [5]: <27 µM | Mouse Explant LD50 ([7]; mouse, 24 h): <13 µM

Cc1oncc1C(=O)Nc1ccc(C(F)(F)F)cc1 [Compound 1, Leflunomide]
HEI-OC1 LD50 (HEI-OC1 cells [2]; mouse, 22 h): >40 µM | Zebrafish IC50 [3]: No | IC50 (HEI-OC1 cells [1]; [9]): 3000 nM | OHC survival [4]: 100% | Zebrafish LD50 [5]: >5.0 µM | Mouse Explant LD50 ([7]; mouse, 24 h): >50 µM

Sc1nc2ccccc2s1 [Compound 10, 2-Mercapto-benzothiazole]
HEI-OC1 LD50 (HEI-OC1 cells [2]; [11]): >10 µM | IC50 (HEI-OC1 cells [1]; [9]): 7000 nM | IC50 [4, 10]: > 49000 nM

O=C(Nc1n[nH]c2nc(-c3ccc(O)cc3)c(Br)cc12)C1CC1 [Compound 16]
HEI-OC1 LD50 (HEI-OC1 cells [2]; mouse, 22 h): >40 µM | IC50 (HEI-OC1 cells [1]; [9]): 800 nM

O=C1C=C2C(=CCOC2O)O1 (stereo not drawn) [Compound 11, Patulin]
IC50 (HEI-OC1 cells [1]; [9]): 700 nM | IC50 ([4]; Mus musculus, 24 h): 3000 to 9000 nM

Cc1ncc(-c2ccnc(Nc3ccc(S(C)(=O)=O)cc3)n2)n1C(C)C [SJZuo-19, AZD5438]
Explant Cisplatin LD50 [4]: ~25 nM | oral bioavailability, F [8]: 91% | Explant Cisplatin LD50 ([7]; mouse, 24 h): < 1000 nM

CCCCCC[C@H]1C(=O)OC(C)C(NC(=O)c2cccc(NC=O)c2O)C(=O)O[C@@H](C)C1OC(=O)CC(C)C (stereo partly drawn) [Compound 5, Antimycin A]
HEI-OC1 LD50 (HEI-OC1 cells [2]; [11]): >10 µM | Zebrafish IC50 [3]: No | IC50 (HEI-OC1 cells [1]; [9]): 40 nM | IC50 [4, 10]: ~1800 nM | OHCs protected against cisplatin (For x%) [4]: (For 31%) | Zebrafish LD50 [5]: <0.6 µM | Mouse Explant LD50 ([7]; P3 cochlear explants): <4 µM

CC[C@H](CO)Nc1nc(NCc2ccccc2O)c2ncn(C(C)C)c2n1 [Compound 9, Olomoucine II]
HEI-OC1 LD50 (HEI-OC1 cells [2]; mouse, 22 h): >40 µM | Zebrafish IC50 [3]: No | IC50 (HEI-OC1 cells [1]; [9]): 800 nM | IC50 (HEI-OC1 cells [1]; [14]): 800 nM | protection against cisplatin-induced hair cell loss in cochlear explants ([4]; 50 μM cisplatin, 24 hrs): protect against cisplatin-induced hair cell loss | OHC survival [4]: 100% | Explant Cisplatin LD50 [4]: 3,000 nM | Zebrafish LD50 [5]: >50 µM | Explant Cisplatin LD50 ([7]; mouse, 24 h): > 33000 nM | Mouse Explant LD50 ([7]; mouse, 24 h): >33 µM

O=C([O-])c1cc(/N=N/c2ccc(O)c(C(=O)[O-])c2)ccc1O.[Na+].[Na+] [Compound 2, Olsalazine sodium]
HEI-OC1 LD50 (HEI-OC1 cells [2]; [11]): >40 µM | Zebrafish IC50 [3]: No | IC50 (HEI-OC1 cells [1]; [12]): 6200 nM | IC50 [4, 13]: ~30000 nM | OHCs protected against cisplatin (For x%) [4]: (For 50%) | Zebrafish LD50 [5]: >30 µM | Mouse Explant LD50 ([7]; P3 cochlear explants): >30 µM

COc1cccc(-c2c[nH]c3c(N/N=C/c4ccncc4)ncnc23)c1 [Compound 17]
HEI-OC1 LD50 (HEI-OC1 cells [2]; mouse, 22 h): >40 µM | IC50 (HEI-OC1 cells [1]; [9]): 2100 nM

N.N.[Cl][Pt][Cl] [cisplatin, reference compound]
hair cells killed ([5]; 5 μM, 20 hrs, no protective compound): 91% | death of outer hair cells (OHCs) ([7]; 50 μM, 24 hrs): ~40%

CN[C@H](C#Cc1c(F)ccc2c1/C(=C/c1[nH]ccc1OC)C(=O)N2)CO [Compound 15]
HEI-OC1 LD50 (HEI-OC1 cells [2]; mouse, 22 h): >10 µM | IC50 (HEI-OC1 cells [1]; [9]): 100 nM

CN(C)CCOc1ccc(-c2cc(-c3ccc4c(c3)CC/C4=N\O)c(-c3ccncc3)o2)cc1 [Compound 14]
HEI-OC1 LD50 (HEI-OC1 cells [2]; mouse, 22 h): >10 µM | IC50 (HEI-OC1 cells [1]; [9]): 1300 nM

COC(=O)C[C@H](NC(=O)[C@H](C)NC(=O)[C@@H](NC(=O)OCc1ccccc1)C(C)C)C(=O)CF [zVAD-fmk] (Cbz-Val-Ala-Asp(OMe)-CH2F)
IC50 (mouse cochlear explants; read-out: IC50, inhibition of cisplatin-induced cell death in the mouse cochlea): 200 nM

O=c1c2ccccc2[se]n1-c1ccccc1 [Ebselen, 2-phenyl-1,2-benzisoselenazol-3-one, reference compound]
potency in protection against cisplatin (HEI-OC1 cells [1]; dose response): low potency
